US6737383B1, “Herbicidal oxadiazolidines” (priority 1999, dated 2004)

Tests used:
smallflower flatsedge = assay: Test B flood test smallflower flatsedge; format: in vivo, Cyperus difformis
Outline: (§1)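 Flood test on plants grown to the 2-leaf stage; treated plants kept in greenhouse twelve to sixteen days, then visually rated against controls on a 0 (no effect) to 10 (complete control) scale.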

wild oat = assay: Test B pre/postemergence wild oat; format: in vivo, Avena fatua; details: for Wild oats plant response rating: scale of 0 to 10 where 0 is no effect and 10 is complete control
Outline: (§2)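 Test chemicals in a non-phytotoxic solvent mixture with surfactant were sprayed preemergence onto planted seeds and postemergence onto plants 2 to 18 cm tall (1- to 4-leaf stage). After twelve to sixteen days in a greenhouse, injury was visually rated against untreated controls from 0 (no effect) to 10 (complete control).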

blackgrass = assay: Test B pre/postemergence blackgrass; format: in vivo, Alopecurus myosuroides; details: for Blackgrass plant response rating: scale of 0 to 10 where 0 is no effect and 10 is complete control
Outline: as §2

corn = assay: Test B pre/postemergence corn; format: in vivo, Zea mays; details: for Corn plant response rating: scale of 0 to 10 where 0 is no effect and 10 is complete control
Outline: as §2

wheat = assay: Test B pre/postemergence wheat; format: in vivo, Triticum aestivum; details: for Wheat plant response rating: scale of 0 to 10 where 0 is no effect and 10 is complete control
Outline: as §2

morningglory = assay: Test B pre/postemergence morningglory; format: in vivo, Ipomoea hederacea; details: for Morningglory plant response rating: scale of 0 to 10 where 0 is no effect and 10 is complete control
Outline: as §2

rape = assay: Test B pre/postemergence rape; format: in vivo, Brassica napus; details: for Rape plant response rating: scale of 0 to 10 where 0 is no effect and 10 is complete control
Outline: as §2

crabgrass = assay: Test B pre/postemergence crabgrass; format: in vivo, Digitaria sanguinalis; details: for Crabgrass plant response rating: scale of 0 to 10 where 0 is no effect and 10 is complete control
Outline: as §2

surinam grass = assay: Test B pre/postemergence surinam grass; format: in vivo, Brachiaria decumbens; details: for B. signalgrass plant response rating: scale of 0 to 10 where 0 is no effect and 10 is complete control
Outline: as §2

bedstraw = assay: Test B pre/postemergence bedstraw; format: in vivo, Galium aparine; details: Postemergence
Outline: as §2

duck salad = assay: Test B flood test duck salad; format: in vivo, Heteranthera limosa
Outline: as §1

bamyardgrass = assay: Test B flood test barnyardgrass; format: in vivo, Echinochloa crus-galli
Outline: as §1

velvetleaf = assay: Test B pre/postemergence velvetleaf; format: in vivo, Abutilon theophrasti; details: for Velvetleaf plant response rating: scale of 0 to 10 where 0 is no effect and 10 is complete control
Outline: as §2

soybean = assay: Test B pre/postemergence soybean; format: in vivo, Glycine max; details: for Soybean plant response rating: scale of 0 to 10 where 0 is no effect and 10 is complete control
Outline: as §2

giant foxtail = assay: Test B pre/postemergence giant foxtail; format: in vivo, Setaria faberii; details: for Giant foxtail plant response rating: scale of 0 to 10 where 0 is no effect and 10 is complete control
Outline: as §2

cocklebur = assay: Test B pre/postemergence cocklebur; format: in vivo, Xanthium strumarium; details: for Cocklebur plant response rating: scale of 0 to 10 where 0 is no effect and 10 is complete control
Outline: as §2

[1] = Rate 62 g/ha, flood test species, Pre-emergence, visual evaluation after twelve to sixteen days
[2] = Rate 125 g/ha, under heading Pre-emergence, flood test species, visual evaluation after twelve to sixteen days
[3] = Rate 250 g/ha, Pre-emergence, flood-test species, scale 0 to 10, 0 is no effect, 10 is complete control
[4] = Rate 500 g/ha, Pre-emergence, flood test species, scale 0 to 10 (0 no effect, 10 complete control)
[5] = Postemergence, Rate 125 g/ha, scale 0 to 10, 0 is no effect, 10 is complete control
[6] = Postemergence, Rate 250 g/ha, scale 0 to 10, 0 is no effect, 10 is complete control
[7] = Preemergence, Rate 62 g/ha, scale 0 to 10 (0 no effect, 10 complete control)
[8] = Rate 500 g/ha, Postemergence, scale 0 to 10, 0 no effect, 10 complete control

CC(C)N(C(=O)n1oc(=O)n(N2CCOCC2)c1=O)c1ccc(F)cc1F [Compound 384]
9: Plant response rating, Blackgrass (blackgrass; [6]) | Crabgrass plant response rating (crabgrass; Preemergence, Rate 250 g/ha) | Crabgrass plant response rating (crabgrass; Preemergence, Rate 500 g/ha) | Plant response rating, Giant foxtail (giant foxtail; [6]) | Plant response rating, Giant foxtail (giant foxtail; [7]) | Plant response rating, Giant foxtail (giant foxtail; [8])
3: Blackgrass plant response rating (blackgrass; Preemergence, Rate 250 g/ha) | Blackgrass plant response rating (blackgrass; Rate 62 g/ha, Postemergence) | Wheat plant response rating (wheat; Preemergence, Rate 500 g/ha) | Plant response rating, Wheat (wheat; [8]) | Plant response rating, B. signalgrass (surinam grass; [5]) | B. signalgrass plant response rating (surinam grass; Preemergence, Rate 250 g/ha) | Velvetleaf plant response rating (velvetleaf; Preemergence, Rate 500 g/ha) | Plant response rating, Soybean (soybean; [6]) | Soybean plant response rating (soybean; Preemergence, Rate 500 g/ha) | Plant response rating, Soybean (soybean; [8])
0: Plant response rating, S. Flatsedge (0 to 10 scale, 0 is no effect, 10 is complete control) (smallflower flatsedge; [1]) | S. Flatsedge plant response rating (0 to 10 scale, 0 is no effect, 10 is complete control) (smallflower flatsedge; [2]) | S. Flatsedge plant response rating (smallflower flatsedge; [3]) | S. Flatsedge plant response rating (smallflower flatsedge; [4]) | Plant response rating, Wild oats (wild oat; [5]) | Plant response rating, Wild oats (wild oat; [6]) | Plant response rating, Wild oats (wild oat; [7]) | Wild oats plant response rating (0 to 10 scale) (wild oat; Preemergence, Rate 125 g/ha) | Wild oats plant response rating (wild oat; Rate 62 g/ha, Postemergence) | Plant response rating, Blackgrass (blackgrass; [7]) | Blackgrass plant response rating (0 to 10 scale) (blackgrass; Preemergence, Rate 125 g/ha) | Plant response rating, Corn (corn; [5]) | Plant response rating, Corn (corn; [6]) | Plant response rating, Corn (corn; [7]) | Corn plant response rating (corn; Rate 62 g/ha, Postemergence) | Plant response rating, Corn (corn; [8]) | Plant response rating, Wheat (wheat; [5]) | Plant response rating, Wheat (wheat; [7]) | Wheat plant response rating (0 to 10 scale) (wheat; Preemergence, Rate 125 g/ha) | Wheat plant response rating (wheat; Rate 62 g/ha, Postemergence) | Plant response rating, Morningglory (morningglory; [5]) | Plant response rating, Morningglory (morningglory; [6]) | Plant response rating, Morningglory (morningglory; [7]) | Morningglory plant response rating (0 to 10 scale) (morningglory; Preemergence, Rate 125 g/ha) | Morningglory plant response rating (morningglory; Preemergence, Rate 250 g/ha) | Morningglory plant response rating (morningglory; Rate 62 g/ha, Postemergence) | Plant response rating, Morningglory (morningglory; [8]) | Plant response rating, Rape (rape; [5]) | Plant response rating, Rape (rape; [6]) | Plant response rating, Rape (rape; [7]) | Rape plant response rating (0 to 10 scale) (rape; Preemergence, Rate 125 g/ha) | Rape plant response rating (rape; Preemergence, Rate 250 g/ha) | Rape plant response rating (rape; Preemergence, Rate 500 g/ha) | Rape plant response rating (rape; Rate 62 g/ha, Postemergence) | Plant response rating, B. signalgrass (surinam grass; [7]) | B. signalgrass plant response rating (0 to 10 scale, 0 is no effect, 10 is complete control) (surinam grass; Preemergence, Rate 125 g/ha) | B. signalgrass plant response rating (surinam grass; Rate 62 g/ha, Postemergence) | Plant response rating, Bedstraw (bedstraw; Rate 125 g/ha, scale 0 to 10, 0 is no effect, 10 is complete control) | Plant response rating, Bedstraw (bedstraw; Rate 250 g/ha, scale 0 to 10, 0 is no effect, 10 is complete control) | Bedstraw plant response rating (bedstraw; Rate 62 g/ha, scale of 0 to 10 where 0 is no effect and 10 is complete control) | Plant response rating, Bedstraw (bedstraw; Rate 500 g/ha, scale 0 to 10, 0 no effect, 10 complete control) | Plant response rating, Ducksalad (0 to 10 scale, 0 is no effect, 10 is complete control) (duck salad; [1]) | Ducksalad plant response rating (0 to 10 scale, 0 is no effect, 10 is complete control) (duck salad; [2]) | Ducksalad plant response rating (duck salad; [3]) | Ducksalad plant response rating (duck salad; [4]) | Plant response rating, Barnyardgrass (0 to 10 scale, 0 is no effect, 10 is complete control) (bamyardgrass; [1]) | Barnyardgrass plant response rating (0 to 10 scale, 0 is no effect, 10 is complete control) (bamyardgrass; [2]) | Barnyardgrass plant response rating (bamyardgrass; [3]) | Barnyardgrass plant response rating (bamyardgrass; [4]) | Plant response rating, Velvetleaf (velvetleaf; [5]) | Plant response rating, Velvetleaf (velvetleaf; [6]) | Plant response rating, Velvetleaf (velvetleaf; [7]) | Velvetleaf plant response rating (0 to 10 scale) (velvetleaf; Preemergence, Rate 125 g/ha) | Velvetleaf plant response rating (velvetleaf; Rate 62 g/ha, Postemergence) | Plant response rating, Velvetleaf (velvetleaf; [8]) | Plant response rating, Soybean (soybean; [7]) | Soybean plant response rating (0 to 10 scale) (soybean; Preemergence, Rate 125 g/ha) | Soybean plant response rating (soybean; Preemergence, Rate 250 g/ha) | Plant response rating, Cocklebur (cocklebur; [5]) | Plant response rating, Cocklebur (cocklebur; [6]) | Plant response rating, Cocklebur (cocklebur; [7]) | Cocklebur plant response rating (0 to 10 scale) (cocklebur; Preemergence, Rate 125 g/ha) | Cocklebur plant response rating (cocklebur; Preemergence, Rate 250 g/ha) | Cocklebur plant response rating (cocklebur; Preemergence, Rate 500 g/ha) | Cocklebur plant response rating (cocklebur; Rate 62 g/ha, Postemergence) | Plant response rating, Cocklebur (cocklebur; [8])
8: Plant response rating, Crabgrass (crabgrass; [6]) | Plant response rating, Crabgrass (crabgrass; [8]) | Plant response rating, Giant foxtail (giant foxtail; [5])
2: Plant response rating, Wheat (wheat; [6]) | Wheat plant response rating (wheat; Preemergence, Rate 250 g/ha) | Morningglory plant response rating (morningglory; Preemergence, Rate 500 g/ha) | Plant response rating, Soybean (soybean; [5])
5: Corn plant response rating (corn; Preemergence, Rate 500 g/ha)
6: Wild oats plant response rating (wild oat; Preemergence, Rate 250 g/ha) | Wild oats plant response rating (wild oat; Preemergence, Rate 500 g/ha) | Plant response rating, Crabgrass (crabgrass; [7]) | Crabgrass plant response rating (0 to 10 scale) (crabgrass; Preemergence, Rate 125 g/ha) | Plant response rating, B. signalgrass (surinam grass; [6])
1: Crabgrass plant response rating (crabgrass; Rate 62 g/ha, Postemergence) | Velvetleaf plant response rating (velvetleaf; Preemergence, Rate 250 g/ha) | Soybean plant response rating (soybean; Rate 62 g/ha, Postemergence)
7: Blackgrass plant response rating (blackgrass; Preemergence, Rate 500 g/ha) | Plant response rating, Crabgrass (crabgrass; [5]) | B. signalgrass plant response rating (surinam grass; Preemergence, Rate 500 g/ha) | Plant response rating, B. signalgrass (surinam grass; [8])
4: Plant response rating, Wild oats (wild oat; [8]) | Plant response rating, Blackgrass (blackgrass; [5]) | Giant foxtail plant response rating (giant foxtail; Rate 62 g/ha, Postemergence)
10: Giant foxtail plant response rating (0 to 10 scale) (giant foxtail; Preemergence, Rate 125 g/ha) | Giant foxtail plant response rating (giant foxtail; Preemergence, Rate 250 g/ha) | Giant foxtail plant response rating (giant foxtail; Preemergence, Rate 500 g/ha)
